The results in this text go back to patent US8563714B2, “Bridged spiro [2.4] heptane derivatives as ALX receptor and/or FPRL2 agonists” (Actelion Pharmaceuticals Ltd., priority 2009, dated 2013).

SMILES strings stand for the structures. Bounds are passed on as bounds.

In experiment [1] the target is T1, human FPRL2 (Homo sapiens, UniProt P25089).
T1 construct: expressed in transfected cells; host or cells: HEK293 (HEK293-hFPRL2-Gα16)
T1 sequence (P25089 1-353): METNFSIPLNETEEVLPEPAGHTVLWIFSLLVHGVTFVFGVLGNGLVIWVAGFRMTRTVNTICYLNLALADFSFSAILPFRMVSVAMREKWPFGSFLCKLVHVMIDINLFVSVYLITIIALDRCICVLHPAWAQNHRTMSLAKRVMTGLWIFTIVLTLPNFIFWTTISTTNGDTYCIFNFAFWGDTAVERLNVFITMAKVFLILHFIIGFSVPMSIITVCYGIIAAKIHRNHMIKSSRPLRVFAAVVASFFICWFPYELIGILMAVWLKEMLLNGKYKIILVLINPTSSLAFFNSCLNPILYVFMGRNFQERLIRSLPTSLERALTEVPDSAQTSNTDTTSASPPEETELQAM
Briefly: Intracellular calcium measurements (FLIPR), agonistic activity in HEK293-hFPRL2-Gα16 cells. It is filed as cell-based. Conditions: Fluo-4 calcium FLIPR, normalized to GLY14-Humanin 100 nM. The method, boiled down:
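Peak values after baseline subtraction are expressed relative to 100 nM Gly14-Humanin; compounds diluted in assay buffer from 10 mM DMSO stocks.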
For orientation: A change in cytosolic calcium serves as a functional read-out for many receptors and channels.

Experiment [2] concerns the target T2, human ALX receptor (Homo sapiens, UniProt P25090).
T2 construct: expressed in transfected cells; host or cells: HEK293 (HEK293-hALXR-Gα16)
T2 sequence (P25090 1-351): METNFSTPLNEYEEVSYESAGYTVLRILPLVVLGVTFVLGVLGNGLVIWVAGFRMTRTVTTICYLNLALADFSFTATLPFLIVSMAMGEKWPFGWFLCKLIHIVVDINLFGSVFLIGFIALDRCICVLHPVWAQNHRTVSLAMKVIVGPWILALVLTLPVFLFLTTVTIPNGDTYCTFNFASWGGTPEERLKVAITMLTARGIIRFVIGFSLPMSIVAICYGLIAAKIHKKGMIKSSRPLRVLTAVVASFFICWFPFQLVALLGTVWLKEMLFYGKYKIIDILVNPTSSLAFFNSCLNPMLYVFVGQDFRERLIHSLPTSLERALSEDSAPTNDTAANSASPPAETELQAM
Briefly: Intracellular calcium measurements (FLIPR), agonistic activity in HEK293-hALXR-Gα16 cells. It is filed as cell-based. Conditions: Fluo-4 calcium FLIPR, normalized to WKYMVm 10 nM. In a few lines:
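Agonist-induced calcium flux was recorded by FLIPR (488/540 nm) in HEK293-hALXR-Gα16 cells pre-loaded with Fluo-4 AM (1 μM, 60 min, 37°C). Peak signal above baseline, after subtracting buffer addition, was expressed relative to WKYMVm at 10 nM final.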

With `CC(=O)c1nc(CNC(=O)[C@H]2[C@H](C(=O)NCCCCN3CCCC3)[C@H]3C=C[C@@H]2C32CC2)cs1` (racemic) [Example 348, (5R*)—N^5-[(2-Acetyl-thiazol-4-yl)methyl]-(6R*)—N^6-(4-pyrrolidino-butyl)-(4S*,7R*)-[4,7-ethenylene-spiro[2.4]heptane]-5,6-dicarboxamide], the EC50 stood at 219 nM in experiment [1] and 3230 nM in experiment [2].
As to `CC(=O)c1cccc(NC(=O)[C@H]2[C@H](C(=O)NCCCCN3CCCC3)[C@H]3C=C[C@@H]2C32CC2)c1` (racemic) [Example 352, (5R*)—N^5-(3-Acetylphenyl)-(6R*)—N^6-(4-pyrrolidino-butyl)-(4S*,7R*)-[4,7-ethenylene-spiro[2.4]heptane]-5,6-dicarboxamide], the EC50 in experiment [1] was found to be 958 nM; in experiment [2], 6700 nM.
In the case of `CC(=O)c1csc(CNC(=O)[C@H]2[C@H](C(=O)NCCCN(C)C)[C@H]3C=C[C@@H]2C32CC2)n1` (racemic) [Example 267, (5R*)—N^5-(4-Acetyl-thiazol-2-yl-methyl)-(6R*)—N^6-(3-dimethylamino-propyl)-(4S*,7R*)-[4,7-ethenylene-spiro[2.4]heptane]-5,6-dicarboxamide], the results for the EC50 in experiment [1] and in experiment [2] were 15300 nM and 288 nM, respectively.
As for `CCN(CC)CCCC(C)NC(=O)C1C(C(=O)Nc2ccc(Br)cc2)C2C=CC1C21CC1` (mixture of isomers) [Example 25, (5R*)—N^5-(4-Bromophenyl)-(6R*)—N^6-(5-(N,N-diethyl-amino)-pent-2-yl)-(4S*,7R*)-[4,7-ethenylene-spiro[2.4]heptane]-5,6-dicarboxamide], the figures for the EC50 in experiment [1] and in experiment [2] were 365 nM and 3.9 nM, respectively.
`O=C(NCCCCN1CCCC1)C1C(C(=O)NCCCn2ccnc2)C2C=CC1C21CC1` (stereo not drawn) [Example 141, (5R*)—N^5-(3-(1H-Imidazol-1-yl)-propyl)-(6R*)—N^6-(4-pyrrolidin-1-yl-butyl)-(4S*,7R*)-[4,7-ethenylene-spiro[2.4]heptane]-5,6-dicarboxamide]: the EC50 in experiment [1] stood at 1600 nM; in experiment [2], 835 nM.
With `NC(=O)CCNC(=O)[C@H]1[C@H](C(=O)Nc2ccc(Br)cn2)[C@@H]2C=C[C@H]1C21CC1` [Example 280, (5R)—N^5-(5-Bromopyrid-2-yl)-(6R)—N^6-(3-amino-3-oxopropyl)-(4S,7R)-[4,7-ethenylene-spiro[2.4]heptane]-5,6-dicarboxamide], the values for the EC50 in experiment [1] and in experiment [2] were over 25000 nM and 258 nM, respectively.
In the case of `Cc1onc(-c2ccccc2)c1CNC(=O)[C@H]1[C@H](C(=O)Nc2ccc(Br)cc2)[C@@H]2C=C[C@H]1C21CC1` (racemic) [Example 101, (5R*)—N^5-(4-Bromophenyl)-(6R*)—N^6-[(5-methyl-3-phenyl-isoxazol-4-yl)-methyl]-(4S*,7R*)-[4,7-ethenylene-spiro[2.4]heptane]-5,6-dicarboxamide], the EC50 in experiment [1] was determined as 457 nM; in experiment [2], 812 nM.
Turning to `O=C(NCC1CCCO1)C1C(C(=O)Nc2ccc(Br)cc2)C2C=CC1C21CC1` (mixture of isomers) [Example 22, (5R*)—N^5-(4-Bromophenyl)-(6R*)—N^6-(2-tetrahydrofuranyl-methyl)-(4S*,7R*)-[4,7-ethenylene-spiro[2.4]heptane]-5,6-dicarboxamide], the EC50 is 4640 nM in experiment [1] and 3.2 nM in experiment [2].
For `COCCC(=O)N(C)C[C@H]1[C@H](C(=O)Nc2ccc(Br)cc2)[C@@H]2C=C[C@H]1C21CC1` (racemic) [Example 175, (5R*)—N^5-(4-Bromo-phenyl)-(6R*)-6-{[N-(3-methoxy-propionyl)-N-methyl-amino]-methyl}-(4S*,7R*)-[4,7-ethenylene-spiro[2.4]heptane]-5-carboxamide] the same measures were 7210 nM and 155 nM.
Consider `CC(C)CCN1CCC(NC(=O)[C@H]2[C@H](C(=O)Nc3ccc(Br)cc3)[C@@H]3C=C[C@H]2C32CC2)CC1` (racemic) [Example 69, (5R*)—N^5-(4-Bromophenyl)-(6R*)—N^6—(N-(3-methyl-butyl)-piperidin-4-yl)-(4S*,7R*)-[4,7-ethenylene-spiro[2.4]heptane]-5,6-dicarboxamide], for which the EC50 in experiment [1] amounted to 708 nM; in experiment [2], 58 nM.
On to `O=C(NCCCCN1CCC1)[C@H]1[C@H](C(=O)Nc2ccc(Br)cc2)[C@@H]2C=C[C@H]1C21CC1` [Example 210, (5R)—N^5-(4-Bromophenyl)-(6R)—N^6-(4-(azetidin-1-yl)butyl)-(4S,7R)-[4,7-ethenylene-spiro[2.4]heptane]-5,6-dicarboxamide], for which the values for the EC50 in experiment [1] and in experiment [2] were 200 nM and 0.4 nM, respectively.
As for `O=C(NCCCCN1CCCC1)[C@H]1[C@H](C(=O)Nc2ccc(Br)c(F)c2F)[C@@H]2C=C[C@H]1C21CC1` [Example 316, (5R)—N^5-(4-Bromo-2,3-difluorophenyl)-(6R)—N^6-(4-pyrrolidino-butyl)-(4S,7R)-[4,7-ethenylene-spiro[2.4]heptane]-5,6-dicarboxamide], the EC50 in experiment [1] stood at 122 nM; in experiment [2] it was 236 nM.
`O=C(NCCCN1CCCC1)[C@H]1[C@H](C(=O)Nc2ccc(Br)cc2)[C@@H]2CC[C@H]1C21CC1` (racemic) [Example 110, (5R*)—N^5-(4-Bromophenyl)-(6R*)—N^6-(3-pyrrolidin-1-yl-propyl)-(4S*,7R*)-[4,7-ethylene-spiro[2.4]heptane]-5,6-dicarboxamide]: the EC50 in experiment [1] stood at 307 nM; in experiment [2], 16 nM.
For the compound `CC(C)(C)OC(=O)N1CCCC1CNC(=O)C1C(C(=O)Nc2ccc(Br)cc2)C2C=CC1C21CC1` (mixture of isomers) [Example 79, (5R*)—N^5-(4-Bromophenyl)-(6R*)—N^6—(N-tert-butoxycarbonyl-pyrrolidin-2-yl-methyl)-(4S*,7R*)-[4,7-ethenylene-spiro[2.4]heptane]-5,6-dicarboxamide], the EC50 was determined as 1300 nM in experiment [1] and 96 nM in experiment [2].
Consider `CC(C)(C)OC(=O)NCc1cccc(CNC(=O)[C@H]2[C@H](C(=O)Nc3ccc(Br)cc3)[C@@H]3C=C[C@H]2C32CC2)c1` (racemic) [Example 90, (5R*)—N^5-(4-Bromophenyl)-(6R*)—N^6-{[(3-N-tert-butoxycarbonyl-aminomethyl)-phenyl]-methyl}-(4S*,7R*)-[4,7-ethenylene-spiro[2.4]heptane]-5,6-dicarboxamide], for which the EC50 was determined as 2260 nM in experiment [1] and 194 nM in experiment [2].
As for `O=C(NCCCCN1CCCC1)[C@H]1[C@H](C(=O)Nc2nc(-c3ccc(Cl)cc3)cs2)[C@@H]2C=C[C@H]1C21CC1` (racemic) [Example 150, (5R*)—N^5-(4-(4-Chlorophenyl)-thiazol-2-yl)-(6R*)—N^6-(4-pyrrolidin-1-yl-butyl)-(4S*,7R*)-[4,7-ethenylene-spiro[2.4]heptane]-5,6-dicarboxamide], the EC50 in experiment [1] turned out to be 110 nM; in experiment [2], 8440 nM.
With `O=C(NCCCCN1CCCC1)[C@H]1[C@H](C(=O)Nc2cnc(Br)c(F)c2)[C@@H]2CC[C@H]1C21CC1` [Example 402, (5R)—N^5-(2-Bromo-3-fluoro-pyridin-5-yl)-(6R)—N^6-(4-pyrrolidino-butyl)-(4S,7R)-[4,7-ethylene-spiro[2.4]heptane]-5,6-dicarboxamide], the results for the EC50 in experiment [1] and in experiment [2] were 66 nM and 349 nM, respectively.
As to `O=C(NCCCO)[C@H]1[C@H](C(=O)Nc2ncc(Br)s2)[C@@H]2CC[C@H]1C21CC1` [Example 404, (5R)—N^5-(5-Bromothiazol-2-yl)-(6R)—N^6-(3-hydroxypropyl)-(4S,7R)-[4,7-ethylene-spiro[2.4]heptane]-5,6-dicarboxamide], the EC50 in experiment [1] stood at 10000 nM; in experiment [2] it was 96 nM.
Turning to `NCCCCCNC(=O)[C@H]1[C@H](C(=O)Nc2ncc(Br)s2)[C@@H]2CC[C@H]1C21CC1` [Example 334, (5R)—N^5-(5-Bromo-thiazol-2-yl)-(6R)—N^6-(5-amino-pentyl)-(4S,7R)-[4,7-ethylene-spiro[2.4]heptane]-5,6-dicarboxamide], the EC50 was 230 nM in experiment [1] and 0.45 nM in experiment [2].
With `O=C(NCCCCN1CCCC1)[C@H]1[C@H](C(=O)NCc2ccco2)[C@@H]2C=C[C@H]1C21CC1` (racemic) [Example 131, (5R*)—N^5-(Furan-2-yl-methyl)-(6R*)—N^6-(4-pyrrolidin-1-yl-butyl)-(4S*,7R*)-[4,7-ethenylene-spiro[2.4]heptane]-5,6-dicarboxamide], the values for the EC50 in experiment [1] and in experiment [2] were 358 nM and 173 nM, respectively.

In general, EC50 refers to the concentration at which the effect is half-maximal.
